The numbers were not newly measured in US20050004106A1, “Combinations of GABA modulators and anticonvulsants, and atypical antipsychotics” (Pfizer Inc, priority 2003, published 2005), which cites them from elsewhere.

The half-life is how long it takes for the measured level to halve.

For data set [1] the following is noted: in vivo.

For `Cl.O.O=C1Cc2cc(CCN3CCN(c4nsc5ccccc45)CC3)c(Cl)cc2N1` [ziprasidone, 5-[2-[4-(1,2-benzisothiazol-3-yl)piperazin-1-yl]ethyl]-6-chloroindolin-2-one hydrochloride hydrate], the protein binding result is “extensive”. In addition, the half-life in data set [1] is 6 to 7 h.
